Read-outs that look alike come from different tables or passages of the source.
Assay: Phase I single dose oral AMX0035 fasted/fed plasma pharmacokinetics and food effect (Protocol A35-002)
Format: in vivo, human
Details: for Frel AUC(0-inf) / Frel AUC(0-last) / Frel Cmax: fed relative to fasted
Method: • Protocol AMX3500: sparse sampling in 87 subjects with ALS. Approximately 2 samples are collected for each subject, 1 or 4 hours post dose following 12 and 24 weeks of treatment. • Protocol A35-002: rich sampling in 14 healthy adults. Approximately 21 samples are collected over 24 hours for each subject on two occasions, once following a high fat meal and the other under fasting conditions.
A total of 14 healthy subjects were enrolled in order to have no fewer than 12 subjects complete. A predefined mix of gender was selected.
Each study period followed the same study design (FIG. 1). Subjects were screened for inclusion in the study up to 28 days before dosing. Subjects were admitted to the clinical unit during Study Day −2 for Period 1 and Day −1 for Period 2 and were dosed in the morning of Day 1. On the night prior to Period 1 the subjects in the fasted/fed or fed/fasted sequence were fasted for a minimum of 10 h prior to dosing.
The solution was stirred until the powder was mostly dissolved.
Any departures from the intended regimen were recorded in the eCRFs. All dose administrations were performed in the study center under the supervision of appropriately trained staff.
Subjects were provided with a light snack and were then fasted from all food and drink (except water) until the following morning, when they were provided with a high-fat breakfast. The breakfast was consumed over a maximum period of 25 min, and dosing occurred 30 min after the start of breakfast. Subjects were encouraged to eat their meal evenly over the 25 min period. For this trial the subject was deemed compliant if they consumed >80% of the high-fat standard breakfast.
The subjects in the 24-h baseline and in the fasted condition Period remained fasted up to 4 h post-dose and were offered a standardized meal to be taken between 4.00 and 5.00 h post-dose. Subjects in the fed condition were fasted overnight and received a high-fat standard breakfast 30 minutes pre-dose and then remained fasted for 4.00 to 5.00 h post-dose when they received a standardized meal.
Venous blood samples were withdrawn via an indwelling cannula or by venipuncture according to the time schedule presented in Table 5 Table, Table 6, and Table 7.
Blood samples of approximately 4 mL were collected into 4 mL BD Vacutainer Plastic K2EDTA Tubes with Lavender Hemogard Closure, and was gently inverted approximately 8 times. The tubes were then immediately stored on ice and processed within 60 min of collection by centrifugation at 1500 g for 10 min at 2 to 8° C. The resultant plasma was separated equally into 2 aliquots and transferred to 2 mL appropriately labelled primary and backup polypropylene cryovials.
Actual elapsed time from dosing was to be used for the final plasma PK parameter calculations after database lock.

[1] = single dose AMX0035 fasted, Geometric Mean
[2] = single dose AMX0035 fasted, Max
[3] = single dose AMX0035 fasted, Median
[4] = single dose AMX0035 fasted, Min
[5] = single dose AMX0035 fed, Geometric Mean
[6] = single dose AMX0035 fed, Median

`O=C(O)Cc1ccccc1` [PAA, phenylacetate] showed a T1/2 (Table 1: fasted, geometric mean (CV%), terminal half-life) of 48.8 min, a Tmax (Table 1: fasted, median (range)) of 150 min and an AUC(0-inf) (both sexes, human, in vivo, Table 1: fasted, geometric mean (CV%), read-out: AUC(0-inf)) of 83400 ng·h/mL. For the same compound, the half-life (both sexes, human, in vivo, Table 1: fasted, geometric mean (CV%), terminal half-life, read-out: T1/2 (converted)) was 48.6 min, the half-life (both sexes, human, in vivo, fasted, read-out: elimination half-lives (range)) was 41.4 to 57 min and the half-life (both sexes, human, in vivo, fed, read-out: elimination half-lives (range)) was 36 to 62.4 min. It also gave a Cmax (both sexes, human, in vivo, po, Table 1: single oral dose ALBRIOZA, healthy subjects, fasted, geometric mean (CV%), read-out: Cmax) of 26400 ng/mL, an AUC(0-inf) (both sexes, human, in vivo, po, single oral AMX0035, Fasted (N = 13), healthy subjects, PK analysis subset, read-out: AUC(0-inf), Adj Geo Mean) of 84800 ng·h/mL and an AUC(0-t) (both sexes, human, in vivo, po, single oral AMX0035, Fasted (N = 13), healthy subjects, PK analysis subset, read-out: AUC(0-last), Adj Geo Mean) of 83200 ng·h/mL. It also gave a Cmax (both sexes, human, in vivo, po, single oral AMX0035, Fasted (N = 13), healthy subjects, PK analysis subset, read-out: Cmax, Adj Geo Mean) of 26600 ng/mL, an AUC(0-inf) (both sexes, human, in vivo, po, single oral AMX0035, Fed (N = 13), healthy subjects, PK analysis subset, read-out: AUC(0-inf), Adj Geo Mean) of 59800 ng·h/mL and an AUC(0-t) (both sexes, human, in vivo, po, single oral AMX0035, Fed (N = 13), healthy subjects, PK analysis subset, read-out: AUC(0-last), Adj Geo Mean) of 58200 ng·h/mL. It also gave a Cmax (both sexes, human, in vivo, po, single oral AMX0035, Fed (N = 13), healthy subjects, PK analysis subset, read-out: Cmax, Adj Geo Mean) of 16100 ng/mL, a Cmax (both sexes, human, in vivo, single dose AMX0035, healthy subjects, fasting, read-out: mean Cmax) of 26400 ng/mL and an AUC(0-inf) (both sexes, human, in vivo, single dose AMX0035 fasted, Geometric Mean, read-out: AUC(0-inf)) of 83400 ng·h/mL. For the same compound, the AUC(0-t) (both sexes, human, in vivo, single dose AMX0035 fasted, Geometric Mean, read-out: AUC(0-last)) was 81800 ng·h/mL, the Cmax (both sexes, human, in vivo, single dose AMX0035 fasted, Geometric Mean, read-out: Cmax) was 26400 ng/mL and the half-life (both sexes, human, in vivo, single dose AMX0035 fasted, Geometric Mean, read-out: T1/2 (converted)) was 48.8 min. It also gave an AUC(0-inf) (both sexes, human, in vivo, single dose AMX0035 fasted, Median, read-out: AUC(0-inf)) of 80700 ng·h/mL, an AUC(0-t) (both sexes, human, in vivo, single dose AMX0035 fasted, Median, read-out: AUC(0-last)) of 79300 ng·h/mL and a Cmax (both sexes, human, in vivo, single dose AMX0035 fasted, Median, read-out: Cmax) of 27700 ng/mL. The half-life (both sexes, human, in vivo, single dose AMX0035 fasted, Median, read-out: T1/2 (converted)) was 50 min, the AUC(0-inf) (both sexes, human, in vivo, single dose AMX0035 fed, Geometric Mean, read-out: AUC(0-inf)) was 58300 ng·h/mL and the AUC(0-t) (both sexes, human, in vivo, single dose AMX0035 fed, Geometric Mean, read-out: AUC(0-last)) was 56700 ng·h/mL. It also gave a Cmax (both sexes, human, in vivo, single dose AMX0035 fed, Geometric Mean, read-out: Cmax) of 15900 ng/mL, a half-life (both sexes, human, in vivo, single dose AMX0035 fed, Geometric Mean, read-out: T1/2 (converted)) of 46.8 min and an AUC(0-inf) (both sexes, human, in vivo, single dose AMX0035 fed, Median, read-out: AUC(0-inf)) of 54500 ng·h/mL. It also gave an AUC(0-t) (both sexes, human, in vivo, single dose AMX0035 fed, Median, read-out: AUC(0-last)) of 53100 ng·h/mL, a Cmax (both sexes, human, in vivo, single dose AMX0035 fed, Median, read-out: Cmax) of 16000 ng/mL and a half-life (both sexes, human, in vivo, single dose AMX0035 fed, Median, read-out: T1/2 (converted)) of 47 min. For the same compound, the Tmax (both sexes, human, in vivo, non parametric analysis, PK analysis subset, Fasted, read-out: Tmax Median) was 150 min, the “peak exposure to metabolite as % of that for parent” value (fasted) was “approximately 14%” and the “time from which plasma concentrations were evident” value (fasted) was 0.25 h. The “total exposure to metabolite based on AUC(0-inf) as % of that for parent” value (fasted) was “approximately 35%”, the “peak exposure to metabolite as % of that for parent” value (fed) was “approximately 34%” and the “total exposure to metabolite based on AUC(0-inf) as % of that for parent” value (fed) was “approximately 48%”. The “Frel AUC(0-inf)” value (Geometric Mean) was 70.606%, the “Frel AUC(0-last)” value (Geometric Mean) was 70.024% and the “Frel Cmax” value (Geometric Mean) was 60.480%. The “Frel AUC(0-inf)” value (Max) was 91.45%, the “Frel AUC(0-last)” value (Max) was 91.27% and the “Frel Cmax” value (Max) was 86.29%. The “Frel AUC(0-inf)” value (Median) was 70.563%, the “Frel AUC(0-last)” value (Median) was 69.952% and the “Frel Cmax” value (Median) was 58.065%. The “Frel AUC(0-inf)” value (Min) was 58.16%, the “Frel AUC(0-last)” value (Min) was 57.31% and the “Frel Cmax” value (Min) was 45.73%. For the same compound, the “Tmax Median” value (non parametric analysis, PK analysis subset, Fed) was 150 min, the AUCextrap [1] was 1.779% and the Lambda-z [1] was 0.8527 h⁻¹. The “AUC(0-inf)” value [2] was 142000 ng·h/mL, the “AUC(0-last)” value [2] was 141000 ng·h/mL and the AUCextrap [2] was 3.18%. The Lambda-z [2] was 0.9999 h⁻¹, the T1/2 [2] was 57 min and the Tmax [2] was 210 min. It also gave an AUCextrap [3] of 1.963%, a Lambda-z [3] of 0.8310 h⁻¹ and a Tmax [3] of 150 min. For the same compound, the “AUC(0-inf)” value [4] was 45200 ng·h/mL, the “AUC(0-last)” value [4] was 43800 ng·h/mL and the AUCextrap [4] was 1.06%. For the same compound, the Lambda-z [4] was 0.7287 h⁻¹, the T1/2 [4] was 41.4 min and the Tmax [4] was 90 min. For the same compound, the AUCextrap [5] was 2.485%, the Lambda-z [5] was 0.8886 h⁻¹ and the “AUC(0-inf)” value (single dose AMX0035 fed, Max) was 130000 ng·h/mL. For the same compound, the “AUC(0-last)” value (single dose AMX0035 fed, Max) was 128000 ng·h/mL, the AUCextrap (single dose AMX0035 fed, Max) was 4.13% and the Lambda-z (single dose AMX0035 fed, Max) was 1.1486 h⁻¹. It also gave a T1/2 (single dose AMX0035 fed, Max) of 62.4 min, a Tmax (single dose AMX0035 fed, Max) of 270 min and an AUCextrap [6] of 2.680%. The Lambda-z [6] was 0.8899 h⁻¹, the Tmax [6] was 150 min and the “AUC(0-inf)” value (single dose AMX0035 fed, Min) was 31900 ng·h/mL. The “AUC(0-last)” value (single dose AMX0035 fed, Min) was 30600 ng·h/mL, the AUCextrap (single dose AMX0035 fed, Min) was 1.26% and the Lambda-z (single dose AMX0035 fed, Min) was 0.6696 h⁻¹. For the same compound, the T1/2 (single dose AMX0035 fed, Min) was 36 min, the Tmax (single dose AMX0035 fed, Min) was 120 min and the “higher exposure in females compared to males” value (single oral dose, fed and fasted) was about 31%.
